The target of data set [1] is T1, Programmed cell death 1 ligand 1 (Homo sapiens, UniProt Q9NZQ7). Nature of the data set: Binding affinity towards His-tagged recombinant human PD-L1 measured by MST dimerization binding assay. It counts as single protein.
Data set [2] is described as follows: Reactivation of mouse CTLL-2 cells pretreated with human PD-L1 assessed as increase in cell proliferation and measured by flow cytometry assay. It counts as functional, cell-based. (In general: A flow cytometer gives signals particle by particle.)
Data set [3] in a line: Solubility in PBS at pH 7.4. Type of data set: physicochemical.
The nature of data set [4]: 1-Octanol/phosphate buffered-saline distribution coefficient, logD of compound at pH 7.4 measured after 2 hrs by LC-MS analysis. Type of data set: physicochemical.
Data set [5] is described as follows: Stability in CD-1 mouse plasma assessed as half-ife at 10 uM. Type of data set: ADME, cell-free.
Data set [6] addresses T1, Programmed cell death 1 ligand 1. Nature of the data set: Binding affinity towards His-tagged recombinant human PD-L1 measured by MicroScale Thermophoresis (MST) assay. Background: MST reads how a fluorescent partner responds to local heating, with and without ligand.
Data set [7] deals with Programmed cell death protein 1/Programmed cell death 1 ligand 1 (Homo sapiens, UniProt Q9NZQ7). In words: Inhibition of human PD-1/PD-L1 interaction in CHO-K1 cells transfected with PD-1-YFP/SHP-2-CFP and measured by FRET assay. It counts as cell-based.

For orientation: Kd means a measure of binding affinity in units of concentration. By IC50 is commonly meant the concentration needed to halve the response being measured. As a reminder, the solubility is how much of the substance goes into solution per volume. Read a low solubility as little dissolved substance. The logD is the decadic logarithm of the distribution of all forms, ionised or not, between an organic phase and buffer at a given pH. Low readings indicate lower lipophilicity, high ones higher lipophilicity. In general, half-life refers to the time needed for the level to fall by half in the phase considered.

In brackets after ≈: the same amount, converted by molar mass.

T1 sequence (Q9NZQ7 whole entry): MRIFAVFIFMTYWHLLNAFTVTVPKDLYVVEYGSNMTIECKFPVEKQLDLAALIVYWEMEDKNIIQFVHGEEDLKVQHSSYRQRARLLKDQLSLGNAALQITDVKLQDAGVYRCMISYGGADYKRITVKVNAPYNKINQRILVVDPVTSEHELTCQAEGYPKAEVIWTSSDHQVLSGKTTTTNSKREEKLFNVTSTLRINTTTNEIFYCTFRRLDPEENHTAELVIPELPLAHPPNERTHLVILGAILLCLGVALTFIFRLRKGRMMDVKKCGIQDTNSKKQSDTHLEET
Chain of Programmed cell death protein 1/Programmed cell death 1 ligand 1 (Q15116 whole entry): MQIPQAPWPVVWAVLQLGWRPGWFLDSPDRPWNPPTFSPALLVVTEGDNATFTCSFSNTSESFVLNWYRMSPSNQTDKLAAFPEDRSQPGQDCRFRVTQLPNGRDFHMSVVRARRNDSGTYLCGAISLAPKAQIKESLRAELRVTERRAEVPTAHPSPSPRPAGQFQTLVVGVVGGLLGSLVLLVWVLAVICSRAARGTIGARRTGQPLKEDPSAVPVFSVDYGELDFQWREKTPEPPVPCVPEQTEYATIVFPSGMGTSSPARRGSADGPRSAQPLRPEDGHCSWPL
Chain of Programmed cell death protein 1/Programmed cell death 1 ligand 1 (Q9NZQ7 whole entry): as the sequence (Q9NZQ7 whole entry) above

Turning to `COc1ccc(C2=NN(c3ccccn3)C(=O)C2)cc1`, the dissociation constant (Kd) in data set [1] is 0.002 µM. Moreover, the IC50 in data set [2] was 0.075 µM. Further, in data set [3], the solubility was found to be 199 µM (≈ 53.2 µg/mL). The logD at 2 h in data set [4] was 2.82. For the same compound, the half-life at 10 µM in data set [5] was 12 min.

With `O=C1CC(c2ccccc2F)=NN1c1ccccn1`, in data set [6], the Kd is over 500 µM.

For the compound `Cc1cccc(C2=NN(c3ccccn3)C(=O)C2)c1`, in data set [6], the Kd was over 500 µM.

On to `CC(C)(C)C1=NN(c2ccccn2)C(=O)C1`, for which the Kd in data set [6] is over 500 µM.

On to `CCCC1=NN(c2ccccn2)C(=O)C1`, for which the equilibrium dissociation constant (Kd) in data set [6] is over 500 µM.

In the case of `COc1ccc(C2=NN(c3ccccn3)C(=O)C2)cc1OC`, the values for the Kd in data set [6] and in data set [1] were 0.00119 µM and 0.0007 µM, respectively. Further, the 50% inhibitory concentration (IC50) in data set [7] stood at 0.0073 µM; in data set [2] it was 0.0041 µM. In data set [3], the solubility was found to be 183 µM (≈ 54.4 µg/mL). In data set [4], this compound displayed a logD at 2 h of 2.19. For the same compound, the half-life at 10 µM in data set [5] was determined as 30 min.

For `O=C1CC(C23CC4CC(CC(C4)C2)C3)=NN1c1ccc(Cl)cc1Cl`, in data set [1], the Kd is 0.024 µM. The results for the IC50 in data set [7] and in data set [2] were 0.009 µM and 0.054 µM, respectively. The compound further came in with a solubility in data set [3] of 1.9 µM (≈ 0.69 µg/mL). The compound also returned a logD at 2 h in data set [4] of 4.28. Besides, in data set [5], the half-life at 10 µM turned out to be 31 min.

As for `CC1=NN(c2ccccn2)C(=O)C1`, the Kd in data set [1] stood at 0.053 µM. Besides, in data set [2], the IC50 worked out at 0.102 µM. The compound further displayed a solubility in data set [3] of over 200 µM. This compound also had a logD at 2 h in data set [4] of 0.85. The half-life at 10 µM in data set [5] amounted to 16 min.

For `O=C1CC(c2ccccc2Cl)=NN1c1ccccn1`, the Kd in data set [6] is over 500 µM.

As for `CCC1=NN(c2ccccn2)C(=O)C1`, in data set [6], the Kd is over 500 µM.

In the case of `COc1ccccc1C1=NN(c2ccccn2)C(=O)C1`, the Kd in data set [1] stood at 0.046 µM. In addition, the IC50 in data set [2] is 0.014 µM. The same compound showed a solubility in data set [3] of 80.9 µM (≈ 21.6 µg/mL). The same compound yielded a log distribution coefficient (logD) at 2 h in data set [4] of 2.56. For the same compound, the half-life at 10 µM in data set [5] was 10.9 min.

Take `O=C1CC(c2cccc(Cl)c2)=NN1c1ccccn1`: the Kd in data set [6] is over 500 µM.

Consider `O=C1CC(c2ccccn2)=NN1c1ccccn1`, for which, in data set [6], the Kd is over 500 µM.

As to `Cc1ccccc1C1=NN(c2ccccn2)C(=O)C1`, the dissociation constant (Kd) in data set [6] was over 500 µM.

As for `O=C1CC(c2ccc(C(F)(F)F)cc2)=NN1c1ccccn1`, the Kd in data set [6] was determined as 0.156 µM. In addition, in data set [7], the IC50 was determined as 0.143 µM.

`Cc1ccc(C2=NN(c3ccccn3)C(=O)C2)cc1`: the Kd in data set [6] came to 1.09 µM.

Take `CC(C)C1=NN(c2ccccn2)C(=O)C1`: the Kd in data set [6] is over 500 µM.

For `CCCCC1=NN(c2ccccn2)C(=O)C1`, the Kd in data set [6] was over 500 µM.

`O=C1CC(c2ccc(Cl)c(Cl)c2)=NN1c1ccccn1`: the equilibrium dissociation constant (Kd) in data set [6] amounted to 0.584 µM.
